Counter-ions that a name gives are not always drawn.
Legend:
Assay type in all cases: physicochemical
[1] = Gravimetric vapour sorption (GVS)
Protocol: The sample was maintained at a constant temperature (25° C.) by the instrument controls. The humidity was controlled by mixing streams of dry and wet nitrogen, with a total flow of 250 ml·min-1. The instrument was verified for relative humidity content by measuring three calibrated Rotronic salt solutions (10-50-88%). The weight change of the sample was monitored as a function of humidity by a microbalance (accuracy+/−0.005 mg). A defined amount of sample was placed in a tared mesh stainless steel basket under ambient conditions. A full experimental cycle typically consisted of three scans (sorption, desorption and sorption) at a constant temperature (25° C.) and 10% RH intervals over a 0-90% range (60 minutes for each humidity level).

[2] = Gravimetric solubility in water; conditions: thermodynamic from solid, gravimetric solubility protocol
Protocol: The solubility in water of the salts was measured using a gravimetric solubility protocol. 1 ml of water was charged into crystallisation tubes. The solid was weighed into a tared glass vial, added in portions to the solutions and the vial weighed after each addition until a hazy solution was observed. The amount in mg was then calculated to give the solubility in mg/ml.

[3] = Solubility in (2-hydroxypropyl)-β-cyclodextrin 20% w/v in water; conditions: continuous stirring, gentle warming to 40° C.
[4] = Powder density and flowability
Protocol: The compound was allowed to settle prior to weighing with approximately 40 mL volume occupied and bulk density calculated. […] The tap density was then calculated.

ICH storage stability = assay: ICH storage stability
Source text: The stability protocol followed ICH guidelines. […] Following storage, these samples were removed from the stability cabinet and analysed for appearance, water content by Karl Fischer titration (KF), and purity. No change in water content or chemical purity by HPLC was observed over six months. […]

[5] = calculated from bulk and tap density

| moisture content before the first desorption ([1]; GVS, 25° C.) | moisture taken up between 80 and 90% RH ([1]; GVS, 25° C., 80-90% RH) | solubility [2] [µg/mL] | concentration achieved in solution [3] [µg/mL] | powder bulk density [4] [g/mL] | tap density [4] [g/mL] | Carr's index [4, 5] [%] | Hausner ratio [4, 5] | flowability ([4]; descriptor from Carr's index and Hausner ratio) | Appearance (ICH storage stability; T = 0) | Chemical purity by HPLC (ICH storage stability; T = 0) [%] | Water content by KF (ICH storage stability; T = 0) [% w/w] | Appearance (ICH storage stability; T = 6 month, 25° C./60% RH) | Chemical purity by HPLC (ICH storage stability; T = 6 month, 25° C./60% RH) [%] | Water content by KF (ICH storage stability; T = 6 month, 25° C./60% RH) [% w/w] | Appearance (ICH storage stability; T = 6 month, 40° C./75% RH) | Chemical purity by HPLC (ICH storage stability; T = 6 month, 40° C./75% RH) [%] | Water content by KF (ICH storage stability; T = 6 month, 40° C./75% RH) [% w/w] | change in water content or chemical purity by HPLC (ICH storage stability; over six months, 25° C./60% RH and 40° C./75% RH) | moisture uptake (surface moisture) ([1]; at 90% RH) [%] | SMILES |
| --- | --- | --- | --- | --- | --- | --- | --- | --- | --- | --- | --- | --- | --- | --- | --- | --- | --- | --- | --- | --- |
| ca. 0.3% | ca. 0.8% | 7500 | > 100000 | 0.55 | ~0.659 | 16.5 | 1.19 | fair | A white solid. | 99.60 | 0.2 | A white solid. | 99.60 | 0.2 | A white solid. | 99.60 | 0.2 | No change | – | CN(C)CCNC(=O)c1ccc(-c2ccc(-c3ccc(Cl)cc3)n2-c2ccccc2C(F)(F)F)cc1 (single isomer, unassigned) [Atropisomer A-2 Tartrate Pattern B salt] |
| – | – | 6700 | – | – | – | – | – | – | – | – | – | – | – | – | – | – | – | – | – | CN(C)CCNC(=O)c1ccc(-c2ccc(-c3ccc(Cl)cc3)n2-c2ccccc2C(F)(F)F)cc1 (single isomer, unassigned) [Atropisomer A-2 Tartrate Pattern A salt] |
| – | – | – | – | – | – | – | – | – | – | – | – | – | – | – | – | – | – | – | < 1 | CN(C)CCNC(=O)c1ccc(-c2ccc(-c3ccc(Cl)cc3)n2-c2ccccc2C(F)(F)F)cc1 [(+)-L-tartaric acid salt, (R)-4-[5-(4-chlorophenyl)-1-[2-(trifluoromethyl)-phenyl]pyrrol-2-yl]-N-[2-(dimethylamino)-ethyl]benzamide (+)-L-tartaric acid salt] |

From patent US12637424B2, “Pharmaceutical salt of an arylpyrrole derivative” (SENTINEL ONCOLOGY LIMITED, priority 2020, dated 2026)
